Measurements: US20230279016A1, “Tetrahydropyrazolopyrimidines and Related Analogs for Inhibiting YAP/TAZ-TEAD” (THE KATHOLIEKE UNIVERSITEIT LEUVEN, priority 2021, published 2023)

The molecules below were run on YAP/TAZ-TEAD transcription (assay: Reporter gene assay for measuring the inhibition of YAP/TAZ-TEAD transcription (TEAD-responsive element luciferase reporter in Hek293T cells)). Details: Hek293T cells transiently transfected with TEAD-responsive element luciferase reporter, 24 hours incubation.
Format: cell-based
Description: Hek293T cells are cultured in DMEM supplemented with 10% fetal bovine serum, Sodium pyruvate, Sodium bicarbonate, L-glutamine. The cells are harvested and transiently transfected with TEAD-responsive element luciferase reporter. Transfected cells are plated in 384-wells plate containing pre-diluted compounds. After 24 hours incubation at 37° C./5%CO2, assay plates were cooled down to RT and levelled to an equal volume per well, prior to the addition of 25 uL luciferase substrate SteadyLite (Perkin Elmer)/well. The plate was shaken for 10 min at 600 rpm, centrifuged for 1min at 500 rpm and measured with an Envision reader (PerkinElmer). The amount of relative light units produced by the TEAD reporter is used to calculated percent of inhibition.
The percent of reporter inhibition was calculated in the presence of a positive control inhibitor (100% inhibition) versus a condition with the presence of the vehicle basal activity of the reporter (0% inhibition). The ability of a test compound to inhibit this activity was determined as:
Percentage inhibition=[1-((RLU determined in the presence of vehicle—RLU determined for sample with test compound present) divided by (RLU determined in the presence of vehicle — RLU determined for sample with positive control inhibitor))] * 100
The activities of the example compounds tested are depicted in the table below. The activity ranges A, B and C refer to EC50 values in the reporter gene assay as described as follows: “A”: EC50 <1 μM; “B” : 1 μM≤EC50≤20 μM and “C” : EC50>20 μM, NT=not tested.
C=CC(=O)NCC1CN(c2ccc(C(F)(F)F)cc2)c2ccnn2C1 (single isomer, unassigned) [Cpd. No. 002-En1, (R)- or (S)-N-((4-(4-(trifluoromethyl)phenyl)-4,5,6,7-tetrahydropyrazolo[1,5-a]pyrimidin-6-yl)methyl)acrylamide] gave an EC50 of under 1000 nM.
In the case of C=CC(=O)NCC1CN(c2ccc(C(F)(F)F)cc2)c2ccnn2C1 (single isomer, unassigned) [Cpd. No. 002-En2, (R)- or (S)-N-((4-(4-(trifluoromethyl)phenyl)-4,5,6,7-tetrahydropyrazolo[1,5-a]pyrimidin-6-yl)methyl)acrylamide], the EC50 is reported as under 1000 nM.
In the case of C=CC(=O)NCC1CN(c2cccc(F)c2)c2ccnn2C1 (single isomer, unassigned) [Cpd. No. 004-En1, (R)- or (S)-N-((4-(3-fluorophenyl)-4,5,6,7-tetrahydropyrazolo[1,5-a]pyrimidin-6-yl)methyl)acrylamide], the EC50 is reported as 1000 to 20000 nM.
In the case of C=CC(=O)NCC1CN(c2cccc(F)c2)c2ccnn2C1 (single isomer, unassigned) [Cpd. No. 004-En2, (R)- or (S)-N-((4-(3-fluorophenyl)-4,5,6,7-tetrahydropyrazolo[1,5-a]pyrimidin-6-yl)methyl)acrylamide], the EC50 is reported as under 1000 nM.
In the case of C=CC(=O)NCC1CN(c2ccc(Cl)cc2)c2ccnn2C1 (single isomer, unassigned) [Cpd. No. 005-En1, (R)- or (S)-N-((4-(4-chlorophenyl)-4,5,6,7-tetrahydropyrazolo[1,5-a]pyrimidin-6-yl)methyl)acrylamide], the EC50 is reported as under 1000 nM.
For C=CC(=O)NCC1CN(c2ccc(Cl)cc2)c2ccnn2C1 (single isomer, unassigned) [Cpd. No. 005-En2, (R)- or (S)-N-((4-(4-chlorophenyl)-4,5,6,7-tetrahydropyrazolo[1,5-a]pyrimidin-6-yl)methyl)acrylamide], the EC50 was under 1000 nM.
For C=CC(=O)NCC1CN(c2ccc(F)cc2)c2ccnn2C1 (single isomer, unassigned) [Cpd. No. 006-En1, (R)- or (S)-N-((4-(4-fluorophenyl)-4,5,6,7-tetrahydropyrazolo[1,5-a]pyrimidin-6-yl)methyl)acrylamide], the EC50 was 1000 to 20000 nM.
For C=CC(=O)NCC1CN(c2ccc(F)cc2)c2ccnn2C1 (single isomer, unassigned) [Cpd. No. 006-En2, (R)- or (S)-N-((4-(4-fluorophenyl)-4,5,6,7-tetrahydropyrazolo[1,5-a]pyrimidin-6-yl)methyl)acrylamide], the EC50 was under 1000 nM.
C=CC(=O)NCC1CN(c2ccc(C(F)F)cc2)c2ccnn2C1 (single isomer, unassigned) [Cpd. No. 009-En1, (R)- or (S)-N-((4-(4-(difluoromethyl)phenyl)-4,5,6,7-tetrahydropyrazolo[1,5-a]pyrimidin-6-yl)methyl)acrylamide] showed an EC50 of 1000 to 20000 nM.
Molecule C=CC(=O)NCC1CN(c2ccc(C(F)F)cc2)c2ccnn2C1 (single isomer, unassigned) [Cpd. No. 009-En2, (R)- or (S)-N-((4-(4-(difluoromethyl)phenyl)-4,5,6,7-tetrahydropyrazolo[1,5-a]pyrimidin-6-yl)methyl)acrylamide] has an EC50 of under 1000 nM.
C=CC(=O)NCC1CN(c2ccc(C(F)F)nc2)c2ccnn2C1 (single isomer, unassigned) [Cpd. No. 010-En1, (R)- or (S)-N-((4-(6-(difluoromethyl)pyridin-3-yl)-4,5,6,7-tetrahydropyrazolo[1,5-a]pyrimidin-6-yl)methyl)acrylamide] gave an EC50 of over 20000 nM.
Molecule C=CC(=O)NCC1CN(c2ccc(C(F)F)nc2)c2ccnn2C1 (single isomer, unassigned) [Cpd. No. 010-En2, (R)- or (S)-N-((4-(6-(difluoromethyl)pyridin-3-yl)-4,5,6,7-tetrahydropyrazolo[1,5-a]pyrimidin-6-yl)methyl)acrylamide] has an EC50 of under 1000 nM.
C=CC(=O)NCC1CN(c2ccc(C(F)(F)F)c(F)c2)c2ccnn2C1 (single isomer, unassigned) [Cpd. No. 015-En1, (R)- or (S)-N-((4-(3-fluoro-4-(trifluoromethyl)phenyl)-4,5,6,7-tetrahydropyrazolo[1,5-a]pyrimidin-6-yl)methyl)acrylamide] gave an EC50 of under 1000 nM.
With C=CC(=O)NCC1CN(c2ccc(C(F)(F)F)c(F)c2)c2ccnn2C1 (single isomer, unassigned) [Cpd. No. 015-En2, (R)- or (S)-N-((4-(3-fluoro-4-(trifluoromethyl)phenyl)-4,5,6,7-tetrahydropyrazolo[1,5-a]pyrimidin-6-yl)methyl)acrylamide] the EC50 was under 1000 nM.
In the case of C=CC(=O)NCC1CN(c2ccc(-c3ccccc3)cc2)c2ccnn2C1 (single isomer, unassigned) [Cpd. No. 017-En1, (R)- or (S)-N-((4-([1,1′-biphenyl]-4-yl)-4,5,6,7-tetrahydropyrazolo[1,5-a]pyrimidin-6-yl)methyl)acrylamide], the EC50 is reported as over 20000 nM.
C=CC(=O)NCC1CN(c2ccc(-c3ccccc3)cc2)c2ccnn2C1 (single isomer, unassigned) [Cpd. No. 017-En2, (R)- or (S)-N-((4-([1,1′-biphenyl]-4-yl)-4,5,6,7-tetrahydropyrazolo[1,5-a]pyrimidin-6-yl)methyl)acrylamide] showed an EC50 of under 1000 nM.
For C=CC(=O)NCC1CN(c2ccn(C)c(=O)c2)c2ccnn2C1 (single isomer, unassigned) [Cpd. No. 024-En2, (R)- or (S)-N-((4-(1-methyl-2-oxo-1,2-dihydropyridin-4-yl)-4,5,6,7-tetrahydropyrazolo[1,5-a]pyrimidin-6-yl)methyl)acrylamide], the EC50 was over 20000 nM.
C=CC(=O)NCC1CN(c2ccc3scnc3c2)c2ccnn2C1 (single isomer, unassigned) [Cpd. No. 026-En2, (R)- or (S)-N-((4-(benzo[d]thiazol-5-yl)-4,5,6,7-tetrahydropyrazolo[1,5-a]pyrimidin-6-yl)methyl)acrylamide] gave an EC50 of 1000 to 20000 nM.
CCC(=O)NCC1CN(c2ccc(C(F)(F)F)cc2)c2ccnn2C1 (single isomer, unassigned) [Cpd. No. 028-En1, (R)- or (S)-N-((4-(4-(trifluoromethyl)phenyl)-4,5,6,7-tetrahydropyrazolo[1,5-a]pyrimidin-6-yl)methyl)propionamide] was tested, and the EC50 was over 20000 nM.
With CCC(=O)NCC1CN(c2ccc(C(F)(F)F)cc2)c2ccnn2C1 (single isomer, unassigned) [Cpd. No. 028-En2, (R)- or (S)-N-((4-(4-(trifluoromethyl)phenyl)-4,5,6,7-tetrahydropyrazolo[1,5-a]pyrimidin-6-yl)methyl)propionamide] the EC50 was under 1000 nM.

Same assay, conditions: Homo sapiens, HEK-293T, 24 h, Hek293T cells transiently transfected with TEAD-responsive element luciferase reporter, 24 hours incubation
With C=CC(=O)NCC1CN(c2ccc(Br)cc2)c2ccnn2C1 (single isomer, unassigned) [Cpd. No. 021-En1, (R)- or (S)-N-((4-(4-bromophenyl)-4,5,6,7-tetrahydropyrazolo[1,5-a]pyrimidin-6-yl)methyl)acrylamide] the EC50 was under 1000 nM.
With C=CC(=O)NCC1CN(c2ccn(C)c(=O)c2)c2ccnn2C1 (single isomer, unassigned) [Cpd. No. 024-En1, (R)- or (S)-N-((4-(1-methyl-2-oxo-1,2-dihydropyridin-4-yl)-4,5,6,7-tetrahydropyrazolo[1,5-a]pyrimidin-6-yl)methyl)acrylamide] the EC50 was over 20000 nM.
Work on C=CC(=O)NCC1CN(c2ccc3scnc3c2)c2ccnn2C1 (single isomer, unassigned) [Cpd. No. 026-En1, (R)- or (S)-N-((4-(benzo[d]thiazol-5-yl)-4,5,6,7-tetrahydropyrazolo[1,5-a]pyrimidin-6-yl)methyl)acrylamide] yielded an EC50 of 1000 to 20000 nM.
